Reference: patent US20120083522A1, “MODULATION OF INFLAMMATORY RESPONSES BY FACTOR XI” (Isis Pharmaceuitcals, inc., priority 2009, published 2012)
In the oligonucleotide strings, read from the 5' end, every base follows the letter of its sugar. An asterisk marks phosphorothioate; unmarked linkages are phosphodiester. Other units and linkages are bracketed, terminal groups are in braces. A string of capitals states the bases alone. e = 2'-O-(2-methoxyethyl) (MOE); [5mC] = 5-methylcytosine; d = 2'-deoxy (DNA)

Experiments:
Format in all cases: in vivo
[1] = Tolerability in CD1 mice: liver function (Example 17); design: Albumin: unit not given here; conditions: plasma, 50 mg/kg s.c. twice a week, 50 mg/kg
[2] = Tolerability in CD1 mice: kidney function (Example 17); conditions: plasma, 50 mg/kg s.c. twice a week
Excerpt: Results are presented in Tables 62 and 63, expressed in mg/dL.

[3] = Tolerability in CD1 mice: hematology assays (Example 17); conditions: for lymphocyte count / monocyte count / neutrophil count: percent of total blood cell count; for HCT / MCH / MCHC / MCV / WBC count: blood, 50 mg/kg s.c. twice a week
Method: A control group of five mice was injected subcutaneously with PBS for 2 weeks. All experimental groups (i.e. ASO treated mice at 2, 4, 6 weeks) were compared to the control group (i.e. PBS, 2 weeks).
Blood obtained from all mice groups were sent to Antech Diagnostics for hematocrit (HCT), mean corpuscular volume (MCV), mean corpuscular hemoglobin (MCH), and mean corpuscular hemoglobin concentration (MCHC) measurements and analyses, as well as measurements of the various blood cells, such as WBC (neutrophils, lymphocytes, and monocytes), RBC, and platelets, and total hemoglobin content. Percentages given in the tables indicate the percent of total blood cell count.

[4] = Tolerability in Sprague-Dawley rats: liver function (Example 19); conditions: plasma, 50 mg/kg s.c. twice per week for 6 weeks, 50 mg/kg
Excerpt: (§1) Urine samples were taken before the start of treatment.

[5] = Tolerability in Sprague-Dawley rats: kidney function (Example 19); conditions: Sprague-Dawley rats, plasma, 50 mg/kg s.c. twice per week for 6 weeks; 50 mg/kg
Excerpt: as §1

[6] = Tolerability in Sprague-Dawley rats: hematology assays (Example 19); conditions: 50 mg/kg s.c. twice per week for 6 weeks; for Lymphocytes / Monocytes / Neutrophils / RBC / Hemoglobin / MCHC: 50 mg/kg; for MCH / Hemoglobin / MCHC: title says % control
Excerpt: as §1

[7] = as above; conditions: 50 mg/kg s.c. twice per week for 6 weeks, 50 mg/kg; for HCT / MCV: title says % control

## GCCCTTCATGTCTAGGTCCA [ISIS 416825] (eG*e[5mC]*e[5mC]*e[5mC]*eT*dT*d[5mC]*dA*dT*dG*dT*d[5mC]*dT*dA*dG*eG*eT*e[5mC]*e[5mC]*eA) [5-10-5 MOE gapmer]
[1]; 2 weeks
  ALT: 64 IU/L
  AST: 82 IU/L
  Albumin: 3.6
  Bilirubin: 0.41 mg/dL
[1]; 4 weeks
  ALT: 314 IU/L
  AST: 239 IU/L
  Albumin: 3.4
  Bilirubin: 0.69 mg/dL
[1]; 6 weeks
  ALT: 507 IU/L
  AST: 301 IU/L
  Albumin: 3.5
  Bilirubin: 0.29 mg/dL
[2]; 2 weeks, 50 mg/kg
  BUN: 29 mg/dL
  creatinine: 0.14 mg/dL
[2]; 4 weeks, 50 mg/kg
  BUN: 35 mg/dL
  creatinine: 0.21 mg/dL
[2]; 6 weeks
  creatinine: 0.17 mg/dL
[2]; 6 weeks, 50 mg/kg
  BUN: 31 mg/dL
[3]; 2 weeks
  RBC count: 9 cells/pL
  hemoglobin content: 14.5 g/dL
  platelet count: 1689 cells/nL
  lymphocyte count: 82%
  monocyte count: 2%
  neutrophil count: 15%
[3]; 4 weeks
  RBC count: 9 cells/pL
  hemoglobin content: 14.1 g/dL
  platelet count: 1229 cells/nL
  lymphocyte count: 53%
  monocyte count: 5%
  neutrophil count: 43%
  MCH: 16 pg
  WBC count: 8 cells/nL
[3]; 6 weeks
  RBC count: 8 cells/pL
  hemoglobin content: 12.1 g/dL
  platelet count: 942 cells/nL
  lymphocyte count: 71%
  monocyte count: 4%
  neutrophil count: 23%
[3]; 2 weeks, 50 mg/kg
  HCT: 49%
  MCH: 17 pg
  MCHC: 29%
  MCV: 58 fL
  WBC count: 8 cells/nL
[3]; 4 weeks, 50 mg/kg
  HCT: 46%
  MCHC: 31%
  MCV: 53 fL
[3]; 6 weeks, 50 mg/kg
  HCT: 40%
  MCH: 15 pg
  MCHC: 31%
  MCV: 51 fL
  WBC count: 6 cells/nL
[4]
  ALT: 89 IU/L
  AST: 17 IU/L
  Albumin: 2 mg/dL
  Bilirubin: 4 mg/dL
[5]
  BUN: 7 mg/dL
  creatinine: 17 mg/dL
[6]
  Lymphocytes: 3%
  Monocytes: 15%
  Neutrophils: 25%
  RBC: 2 pL⁻¹
  MCH: 2 pg
  Hemoglobin: 2 g/dL
  MCHC: 4%
[7]
  Platelets: 6 10^3/μL
  WBC: 22 nL⁻¹
  HCT: 2%
  MCV: 4 fL

## GCCCTTCATGTCTAGGTCCA [ISIS 416892] (eG*e[5mC]*e[5mC]*d[5mC]*dT*dT*d[5mC]*dA*dT*dG*dT*d[5mC]*dT*dA*dG*dG*dT*e[5mC]*e[5mC]*eA) [3-14-3 MOE gapmer]
[1]; 2 weeks
  ALT: 66 IU/L
  AST: 121 IU/L
  Albumin: 3.2
  Bilirubin: 0.38 mg/dL
[1]; 4 weeks
  ALT: 1526 IU/L
  AST: 1347 IU/L
  Albumin: 4.0
  Bilirubin: 2.99 mg/dL
[1]; 6 weeks
  ALT: 1939 IU/L
  AST: 1443 IU/L
  Albumin: 4.4
  Bilirubin: 0.50 mg/dL
[2]; 2 weeks, 50 mg/kg
  BUN: 19 mg/dL
  creatinine: 0.11 mg/dL
[2]; 4 weeks, 50 mg/kg
  BUN: 28 mg/dL
  creatinine: 0.20 mg/dL
[2]; 6 weeks
  creatinine: 0.17 mg/dL
[2]; 6 weeks, 50 mg/kg
  BUN: 23 mg/dL
[3]; 2 weeks
  RBC count: 7 cells/pL
  hemoglobin content: 13.0 g/dL
  platelet count: 1687 cells/nL
  lymphocyte count: 79%
  monocyte count: 3%
  neutrophil count: 19%
[3]; 4 weeks
  RBC count: 9 cells/pL
  hemoglobin content: 13.5 g/dL
  platelet count: 636 cells/nL
  lymphocyte count: 52%
  monocyte count: 6%
  neutrophil count: 43%
  MCH: 16 pg
  WBC count: 8 cells/nL
[3]; 6 weeks
  RBC count: 9 cells/pL
  hemoglobin content: 13.1 g/dL
  platelet count: 1004 cells/nL
  lymphocyte count: 64%
  monocyte count: 7%
  neutrophil count: 28%
[3]; 2 weeks, 50 mg/kg
  HCT: 48%
  MCH: 18 pg
  MCHC: 30%
  MCV: 59 fL
  WBC count: 5 cells/nL
[3]; 4 weeks, 50 mg/kg
  HCT: 42%
  MCHC: 32%
  MCV: 49 fL
[3]; 6 weeks, 50 mg/kg
  HCT: 45%
  MCH: 16 pg
  MCHC: 30%
  MCV: 53 fL
  WBC count: 9 cells/nL
[4]
  ALT: 113 IU/L
  AST: 183 IU/L
  Albumin: 8 mg/dL
  Bilirubin: 1 mg/dL
[5]
  BUN: 188 mg/dL
  creatinine: 1 mg/dL
[6]
  Lymphocytes: 18%
  Monocytes: 58%
  Neutrophils: 92%
  RBC: 12 pL⁻¹
  MCH: 2 pg
  Hemoglobin: 14 g/dL
  MCHC: 0%
[7]
  Platelets: 66 10^3/μL
  WBC: 68 nL⁻¹
  HCT: 13%
  MCV: 1 fL
